Measured values published in US7875270B2, “Treatment solution and method for preventing posterior capsular opacification by selectively inducing detachment and/or death of lens epithelial cells” (Abbott Medical Optics Inc., priority 2002, dated 2011).

Test system: human retinal-pigmented epithelial cells (RPECs)
Experiment: Confluent RPEC monolayers exposed to solutions; MTT cell viability
Format: cell-based
Conditions: 28 μM, 112 μM and 224 μM bumetanide, ≦200 mM NaCl, 3 μl of 5N NaOH
Experimental: As described below, the confluent monolayers of LECs, CEDCs, and RPECs grown in 96-well flat-bottom plates are exposed to varying concentrations of NaCl (an osmolyte) solution. Two hundred μl of NaCl solution (prepared as described below) are added to each well at concentrations of 137 mM, 170 mM, 340 mM, 680 mM, 1360 mM and 2000 mM NaCl, respectively. The solutions have a pH of 8.0±0.4. The concentrations of NaCl correspond to final osmolarities of about 285 to 4000 mOsm/L, respectively.
The primary and first passages of human lens epithelial cells, human corneal endothelial cells, and human retinal-pigmented epithelial cells are cultured. The LECs, the CEDCs, and the RPECs are isolated from post-mortem eyes by using standard techniques of cell isolation and enzyme digestion. See Uebersax E D, Grindstaff R D and Defoe D M Exp Eye Res. 2000 March; 70(3): 381-90; Wagner L M, Saleh S M, Boyle D J, and Takemoto D J. Mol Vis. 2002 Mar. 14; 8: 59-66; Cammarata P R, Schafer G, Chen S W, Guo Z, and Reeves R E. Invest Ophthalmol Vis Sci. 2002 February; 43(2): 425-33; Rakic J M, Galand A, and Vrensen G F. Exp Eye Res. 2000 November; 71(5): 489-94. LECs and CEDCs are cultured in Eagle's minimum essential medium (MEM). RPECs are cultured in Ham's F10 medium, supplemented with 2 mM glutamine, 25 mmol/L Hepes, pH 7.4, 10 U/mL penicillin, and 10 μg/mL streptomycin and 15% heat-inactivated foetal cow serum (FCS). The primary cultured LECs, CEDCs, and RPECs are sub-cultured at 10^4 cells/wells in 96-well flat-bottom plates until they reached 90 to 100% confluence. These cells are grown to confluence in an incubator with a humidified atmosphere of 5% CO2 at 37° C. The cells are kept in a confluent state for overnight before assays.
After treatment, the treated cells are thoroughly washed, and cultured with fresh media for twelve hours before cell viability is assessed. The capability of these cells to survive at the indicated hypertonic stress levels is assessed by an MTT assay 12-24 hours post-exposure.
MTT assay is an assay to assess mitochondria function, performed as described by Mosmann (Mosmann, T. J Immunol Methods. 1983 Dec. 16; 65(1-2): 55-63. The tetrazolium salt 3-(4,5-dimethylthiazol-2-yl)-2,5-diphenyl tetrazolium bromide (MTT; supplied by Sigma Chemical Co.) is dissolved in Phosphate's Balanced Salt (PBS) Solutions at 5 mg/ml and sterilized by passage through a 0.22 μm Millipore filter. MTT stock solution is added to growth media at a ratio of 1 to 10. Cells are incubated with this growth media for three to four hours. In cells that are alive at the time of adding MTT, mitochondrial dehydrogenase cleaves the tetrazolium ring into a dark blue formazan reaction product, which builds up in the cell. MTT-reacted cultures are observed under brightfield microscopy without further processing. Cells in each well are scored as MTT-positive if they are completely filled with reaction product (in the case of unattached cells) or contain many formazan crystals emanating from multiple foci (in the case of attached or spread cells). MTT-reacted cultures are then lysised by dimethyl sulfoxide (DMSO) and read in a Microplate Reader to obtain a measure of cell viability.
Confluent monolayers of RPECs are prepared as described in Example 1. These cells are exposed for ten minutes to 200 μl/well of the solutions comprising increasing concentrations of NaCl (137 mM, 170 mM, 340 mM, 680 mM, 1360 mM and 2000 mM) at varying pH (8.4±0.5 and 10.6±0.5). The solutions of NaCl are prepared as described in Example 1. The pH of the solutions is adjusted with additions of 1 μl and 5 μl of 5N NaOH as described Example 3.
Confluent monolayers of LECs and RPECs are prepared as described in Example 1. […]
Confluent monolayers of LECs, CEDCs and RPECs are prepared as described in Example 1. […]
To assess whether there is any side effect of this treatment on other ocular cells, confluent monolayers of LECs, CEDCs and RPECs are prepared as described in Example 1. […]

## CCCCNc1cc(C(=O)O)cc(S(N)(=O)=O)c1Oc1ccccc1 [bumetanide]
  RPECs killed or removed: less than 20%
